Assay results from US12709637B2, “Regulated synthetic gene activation systems” (TRUSTEES OF BOSTON UNIVERSITY, priority 2023, dated 2026).
Entries after “also recorded” stand apart in the source; their conditions may differ.

Key:
[1] = test system: mCherry fluorescent reporter in Jurkat T cells; experiment: hhTAD transcription activators, mCherry reporter in Jurkat T cells; assay type: cell-based; conditions: 1 uM GZV or 4-OHT, 72h, compared with p65 and VPR counterparts
Source text: FIG. 6A is a schematic and bar graph showing that the IWS1 TIMs domain increases transcriptional activation in an NS3-comprising synTF in the presence of grazoprevir. FIG. 6B is a schematic and bar graph showing that the IWS1 TIMs domain increases transcriptional activation in an ERT2-comprising synTF in the presence of 4OHT.
The humanized hybrid transcription activator domain (see e.g., SEQ ID NOs: 15-16) when integrated into small-molecule inducible transcriptional activation systems is able to robustly and strongly induce transgene expression in mammalian cells. The humanized hybrid transcription activation domain (hhTAD) was attached to an artificial zinc finger proteins (see e.g., U.S. Pat. No. 10,138,493 B2 and US Patent Publication No. 2020/0377564 A1; the contents of each of which are incorporated herein by reference in their entirety) to either a NS3 or ERT2 domain (see e.g., FIG. 5A). To report transcriptional activation, described herein is a […] mCherry fluorescent reporter (see e.g., FIG. 5B). […]
To evaluate the strength of this hhTAD, Jurkat T cells were generated stably expressing both the transcription activator(s) modified with the hhTAD and fluorescent reporter. […] Reporter cells with were treated 1 uM GZV or 4-OHT, and mCherry reporter fluorescence was measured at 72h (see e.g., FIG. 6A-6B).

[2] = test system: mCherry reporter in Jurkat T cells; experiment: Loss of function TIMs mutants in GZV-synZiFTR2.0; assay type: cell-based; conditions: GZV induction, 3 days, compared to GZV-synZiFTR2.0 carrying WT TIMs
Source text: FIG. 4A-4B. IWS1 TIMs mechanism of action. (FIG. 4A) IWS1 mutants affecting TIMs employed in this study. WT TIMs domain in GZV-synZiFTR2.0 were replaced by TIMs structural mutant variants (see e.g., SEQ ID NOs: 5-14). The amino acid sequence of the TIMs domain is shown (see e.g., SEQ ID NO: 5). The boxes highlight each of the 3 TIM amino acid sequences (see e.g., SEQ ID NOs: 6-8) and the mutants respectively (see e.g., SEQ ID NOs: 12-14). Different TIM mutations caused loss of interactions with various transcription elongation factors (Transcription factor IIS (TFIIS) and Elongin A (EloA) for the TIM1 mutant; Protein Phosphatase 1 Nuclear Targeting Subunit (PP1-PNUTs) for the TIM2 mutant; lens epithelium-derived growth factor (LEDGF) and H3K36me2/3 binding protein HDGFL2 (HRP2) for the TIM3 mutant). Figure discloses SEQ ID NOS 5-6, 12, 6, 6-7, 7, 13, 7-8, 8, 8, and 14, respectively, in order of appearance. (FIG. 4B) Evaluating loss of function TIMs mutations. GZV-synZiFTR2.04 distinct mutant variants of TIMs were expressed in Jurkat T cells. The circuit outputs were compared to GZV-synZiFTR2.0 carrying WT TIMs. Jurkat T cells were co-transduced with reporter, synZiFTR2.0 and synZiFTR expression lentiviral vectors in an equal ratio. mCherry fluorescence was measured by flow cytometry 3 days after induction by small molecules at the indicated concentrations. Bars represent mean values for three measurements±SD. Statistics represent two-tailed Student's t test; ****P<0.0001.
The TIMs domain contains a series of three unique TIMs that selectively interact with different TND-containing factors. TIM1 interacts with Transcription Factor IIS (TFIIS) and Elongin A (EloA), TIM2 is recognized by the PP1-PNUTS phosphatase, and finally the H3K36me3 readers, lens epithelium-derived growth factor (LEDGF), and H3K36me2/3 binding protein HDGFL2 (HRP2) bind to TIM3. Here, it was investigated which direct interactions between each TIMs and their protein partner is involved in the enhanced transcriptional output by synZiFTR2.0s. […]

iCasp9+ cells = conditions: cited from earlier work
[3] = among 2A peptides; cited from earlier work

Compound: IWS1 TIMs domain: amino acids 449-492 of IWS1, SEQ ID NO: 5, 44 aa; transcriptional effector domain
- mCherry reporter fluorescence [1]: increases their transcriptional activation

Compound: M3: TIM3 mutant, F488A and F491A, SEQ ID NO: 11, in GZV-synZiFTR2.0 (SDKKNEEKDLFGSDSESGNEEENLIADIFGESGDEEEEEATGAN)
- mCherry fluorescence output [2]: did not affect GZV-synZiFTR2.0 output

Compound: CC[C@H](C(=O)N1CCCC[C@H]1C(=O)O[C@H](CCc1ccc(OC)c(OC)c1)c1cccc(OCC(=O)NCCNC(=O)COc2cccc([C@@H](CCc3ccc(OC)c(OC)c3)OC(=O)[C@@H]3CCCCN3C(=O)[C@@H](CC)c3cc(OC)c(OC)c(OC)c3)c2)c1)c1cc(OC)c(OC)c(OC)c1 [AP1903]
- GvHD outcome after AP1903 (iCasp9+ cells; patients receiving iCasp9 T cells): complete reversal of GvHD; also recorded: Two of the four patients
- reduction in iCasp9+ cells (iCasp9+ cells; phase I trial, four patients with acute GvHD, within 30 minutes of administration): 90%

Compound: M1: TIM1 mutant, L458A and F459A, SEQ ID NO: 9, in GZV-synZiFTR2.0 (SDKKNEEKDAAGSDSESGNEEENLIADIFGESGDEEEEEFTGFN)
- mCherry fluorescence output [2]: did not affect GZV-synZiFTR2.0 output

Compound: M2: TIM2 mutant, I476A and F477A, SEQ ID NO: 10, in GZV-synZiFTR2.0 (SDKKNEEKDLFGSDSESGNEEENLIADAAGESGDEEEEEFTGFN)
- mCherry fluorescence output [2]: ablated the mCherry fluorescence output by TIMs-p65 fusion

Compound: P2A: 2A self-cleaving peptide derived from porcine teschovirus-1 2A, SEQ ID NO: 341 (GSGATNFSLLKQAGDVEENPGP; VARIANT 1..3 May be absent)
- efficiency of self-cleaving [3]: most efficient
